Experimental data taken from BindingDB's records for patent USRE47493 (Boehringer Ingelheim International, 2019).

Biological target: T1, Neutrophil elastase (Homo sapiens, UniProt P08246)
T1 sequence (P08246 whole entry): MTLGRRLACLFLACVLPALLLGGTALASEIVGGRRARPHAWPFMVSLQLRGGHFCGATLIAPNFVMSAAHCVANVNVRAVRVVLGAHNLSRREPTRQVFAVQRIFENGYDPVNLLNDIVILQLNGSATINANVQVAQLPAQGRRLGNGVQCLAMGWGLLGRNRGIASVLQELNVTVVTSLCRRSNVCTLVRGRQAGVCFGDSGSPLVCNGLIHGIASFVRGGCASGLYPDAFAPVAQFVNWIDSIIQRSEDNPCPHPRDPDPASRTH
Assay: Enzyme Inhibition Assay
Protocol: All other materials were of the highest grade commercially available.The following buffers were used: Compound buffer: 100 mM Tris, 500 mM NaCl, adjusted to pH 7.5; Assay buffer: 100 mM Tris, 500 mM NaCl, adjusted to pH 7.5, containing 0.01% BSA.Assay conditions: Test compounds were prediluted in DMSO and subsequently in compound buffer (5% DMSO final). […] After inactivation of the enzyme, fluorescence intensities were measured at 380 nm excitation and 460 nm emission wavelengths.

Row | IC50 | SMILES
1 | 1.1 nM | N#Cc1ccc(C2C3=C(CCCC3=O)N(c3cccc(C(F)(F)F)c3)C(=O)N2C(=O)NC2CCCC[C@@H]2O)cc1 (some centres not stated) [USRE47493, Example 70.17]
2 | < 1 nM | N#Cc1ccc(C2C3=C(CCCC3=O)N(c3cccc(C(F)(F)F)c3)C(=O)N2C(=O)NC2CCC[C@@H]2O)cc1 (some centres not stated) [USRE47493, Example 70.12]
